Measured values reported in US20240182531A1, “KV1.3 Blockers” (priority 2021, published 2024).
Like-named read-outs stand apart in the source and are kept apart here. Where a SMILES comes first, the peptide text is derived from it. Bridges are numbered along the chain shown (N, C = ends). [ ]: non-standard residue; d: D form. Nle = CCCC[C@H](N)C(=O)O

Tests used:
human Kv1.2 = target: T1, human Kv1.2 (Homo sapiens, UniProt P16389); test: cell-based; details: ratio of patch clamp IC50 values
T1 construct: expressed in transfected cells; host or cells: CHO

[1] = tested on: Human peripheral blood mononuclear cells (PBMCs); assay type: cell-based; details: geometric mean, at least 6 replicates, Example 5b; read-out: anti-CD3 PBMC/IL-2 IC50
Procedure: Human peripheral blood mononuclear cells (PBMCs) were used to assess the effects of Kv1.3 blocker reference compounds on T-cell activation as determined by IL-2 release after stimulation with anti-CD3.
(§1) Human PBMCs were obtained from Precision for Medicine (Frederick, MD). Cells from 5 donors were used. Plate-bound anti-CD3 was used to stimulate bulk T cells in the PBMC preparations. Briefly, 96-well plates were coated with anti-CD3 antibody for app. 16 hours at 5° C., using 50 μl of a 1 μg/ml anti-CD3 solution diluted in PBS. Thereafter the plates were washed twice.
Kv1.3 blockers were subsequently diluted in medium (RPMI 1640 with Glutamax-I containing, 10% v/v Fetal Bovine Serum, 1% v/v penicillin-streptomycin Solution) and added in a volume of 50 μl. The compounds indicated in Table 8b were used at concentrations ranging from 0.3 pM to 1000 nM (half log dilutions, starting concentrations varying).
Finally, 50.000 PBMCs in the same medium were added to each well in a volume of 50 μl, giving a final volume of 100 μl per well. The plates were incubated for 20-24 hours in a 37° C./5% CO2 incubator. After centrifugation of the plates, 25 μl supernatant was transferred to IL-2 detection plates (MSD Human IL-2 Tissue Culture Kit, cat #K151AHB-2) and IL-2 was measures as described by the manufacturer (Meso Scale Discovery, Rockville, Maryland, USA).
All values derive from at least 6 replicates.

human Kv1.1 = target: T2, human Kv1.1 (Homo sapiens, UniProt Q09470); test: cell-based; details: ratio of patch clamp IC50 values
T2 construct: expressed in transfected cells; host or cells: CHO

Rat whole blood = Rat whole blood (Rattus norvegicus, UniProt P15384); assay type: cell-based; details: IL-17A release, thapsigargin, 24 Hr, at least 2 replicates
human Kv1.6 = target: T3, human Kv1.6 (Homo sapiens, UniProt P17658); test: cell-based; details: ratio of patch clamp IC50 values
T3 construct: expressed in transfected cells; host or cells: CHO

[2] = tested on: Human peripheral blood mononuclear cells (PBMCs); assay type: cell-based; details: geometric mean, at least 4 replicates, Example 5a; read-out: anti-CD3 PBMC/IL-2 IC50
Procedure: Human peripheral blood mononuclear cells (PBMCs) were used to assess the effects of Kv1.3 blocker reference compounds on T-cell activation as determined by IL-2 (cytokine) release after stimulation with anti-CD3.
as §1, with “2 hrs” for “app. 16 hours”, “37°” for “5°”, “μL” for “μl”, “0.5 μg/mL” for “1 μg/ml”, “1×PBS.” for “PBS.”
Kv1.3 blockers as shown in Table 8a were diluted in medium (RPMI 1640 with Glutamax-I containing 10% v/v Fetal Bovine Serum, 1% v/v penicillin-streptomycin solution) and added in a volume of 100 μL at concentrations ranging from 0.01 pM to 100 nM (tenfold dilutions). […] Finally, 1×10^5 PBMCs were added to each well in a volume of 100 μL, giving a final volume of 200 μL per well. The plates were incubated for 20-24 hours in a 37 °C/5% CO2 incubator. After centrifugation of the plates, 25 μl supernatant was transferred to IL-2 detection plates (MSD Human IL-2 Tissue Culture Kit, cat #K151AHB-2) and IL-2 was measures as described by the manufacturer (Meso Scale Discovery, Rockville, Maryland, USA).
Results are shown in Table 8a as geometric mean of IC50 values obtained from anti-CD3 stimulated human PBMC assays. All values derive from at least 4 replicates.

T1 sequence (P16389 whole entry): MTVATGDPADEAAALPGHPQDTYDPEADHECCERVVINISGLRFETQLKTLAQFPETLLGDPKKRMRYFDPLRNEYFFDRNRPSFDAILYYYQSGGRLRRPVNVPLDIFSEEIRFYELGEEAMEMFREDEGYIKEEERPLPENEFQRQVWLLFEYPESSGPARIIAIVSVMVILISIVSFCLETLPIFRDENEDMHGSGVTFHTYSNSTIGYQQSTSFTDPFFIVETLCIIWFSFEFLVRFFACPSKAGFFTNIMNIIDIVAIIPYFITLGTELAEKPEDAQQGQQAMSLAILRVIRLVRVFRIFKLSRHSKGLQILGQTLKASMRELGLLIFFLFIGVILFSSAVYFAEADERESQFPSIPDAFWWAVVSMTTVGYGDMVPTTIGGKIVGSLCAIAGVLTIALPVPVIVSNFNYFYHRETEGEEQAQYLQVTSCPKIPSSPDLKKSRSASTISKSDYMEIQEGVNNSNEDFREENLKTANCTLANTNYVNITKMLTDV
T3 sequence (P17658 whole entry): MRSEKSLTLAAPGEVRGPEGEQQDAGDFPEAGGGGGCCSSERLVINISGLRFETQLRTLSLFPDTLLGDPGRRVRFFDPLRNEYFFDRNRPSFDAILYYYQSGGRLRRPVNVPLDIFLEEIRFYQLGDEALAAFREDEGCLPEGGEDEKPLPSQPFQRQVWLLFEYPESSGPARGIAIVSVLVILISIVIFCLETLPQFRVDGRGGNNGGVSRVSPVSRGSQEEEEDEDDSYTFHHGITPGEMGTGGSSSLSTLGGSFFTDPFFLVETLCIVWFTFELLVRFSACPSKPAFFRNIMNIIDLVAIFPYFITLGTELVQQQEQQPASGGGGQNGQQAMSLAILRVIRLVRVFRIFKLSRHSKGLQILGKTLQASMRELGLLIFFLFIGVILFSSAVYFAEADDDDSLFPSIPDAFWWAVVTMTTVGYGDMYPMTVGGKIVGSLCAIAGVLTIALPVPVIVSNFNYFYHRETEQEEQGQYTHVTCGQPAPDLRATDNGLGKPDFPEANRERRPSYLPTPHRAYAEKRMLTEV
T2 sequence (Q09470 whole entry): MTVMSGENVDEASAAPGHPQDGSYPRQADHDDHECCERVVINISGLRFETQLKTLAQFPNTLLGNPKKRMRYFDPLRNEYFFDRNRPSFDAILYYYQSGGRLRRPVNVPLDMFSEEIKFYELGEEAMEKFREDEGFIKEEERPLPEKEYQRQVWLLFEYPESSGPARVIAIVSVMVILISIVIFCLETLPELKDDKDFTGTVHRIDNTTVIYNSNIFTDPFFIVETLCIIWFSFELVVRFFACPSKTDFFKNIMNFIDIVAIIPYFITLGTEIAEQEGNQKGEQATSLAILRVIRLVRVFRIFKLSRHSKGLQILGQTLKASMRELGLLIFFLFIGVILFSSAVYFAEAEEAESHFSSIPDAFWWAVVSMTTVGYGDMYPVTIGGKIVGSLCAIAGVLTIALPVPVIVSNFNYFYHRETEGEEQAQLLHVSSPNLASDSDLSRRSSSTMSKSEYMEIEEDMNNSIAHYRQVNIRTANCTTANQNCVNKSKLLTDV
Sequence of Rat whole blood (P15384 whole entry): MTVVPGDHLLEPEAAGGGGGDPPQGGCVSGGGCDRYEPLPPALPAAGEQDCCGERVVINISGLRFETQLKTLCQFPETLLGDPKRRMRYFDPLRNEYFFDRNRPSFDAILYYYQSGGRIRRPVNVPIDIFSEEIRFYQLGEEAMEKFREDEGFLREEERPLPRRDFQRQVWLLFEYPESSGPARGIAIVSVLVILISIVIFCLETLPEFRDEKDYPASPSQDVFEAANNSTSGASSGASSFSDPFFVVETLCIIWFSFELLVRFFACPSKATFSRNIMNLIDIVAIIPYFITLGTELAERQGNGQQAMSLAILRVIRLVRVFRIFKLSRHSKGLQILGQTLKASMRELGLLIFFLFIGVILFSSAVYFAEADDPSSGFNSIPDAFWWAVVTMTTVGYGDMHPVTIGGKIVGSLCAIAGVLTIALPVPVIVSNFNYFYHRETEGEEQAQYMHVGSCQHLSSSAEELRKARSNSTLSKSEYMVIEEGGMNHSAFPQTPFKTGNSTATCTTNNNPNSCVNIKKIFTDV

CCCC[C@@H]1NC(=O)[C@@H]2CSSC[C@H](NC(=O)[C@H](CCCNC(=N)N)NC(=O)[C@H](CCCC)NC(=O)[C@H](CC(=O)O)NC(=O)[C@H](CCCC)NC(=O)[C@@H](N)CC(N)=O)C(=O)N[C@@H](CO)C(=O)N[C@@H](C)C(=O)N[C@@H](CO)C(=O)N[C@@H](C(C)C)C(=O)N[C@@H](CCC(=O)O)C(=O)N[C@H]3CSSC[C@H](NC(=O)[C@H](CCCCN)NC(=O)[C@H](CCCCN)NC(=O)[C@H](CC(N)=O)NC1=O)C(=O)N[C@@H](CCCCN)C(=O)N[C@H](C(=O)N[C@@H](Cc1ccc(O)cc1)C(=O)N1CCC[C@H]1C(=O)N[C@@H](CCCNC(=N)N)C(N)=O)CSSC[C@H](NC(=O)[C@H](CO)NC(=O)[C@H](CCC(N)=O)NC(=O)[C@H](CCCCN)NC3=O)C(=O)N[C@@H](CC(C)C)C(=O)N[C@@H](CCCCN)C(=O)N[C@@H](C)C(=O)N[C@@H]([C@@H](C)CC)C(=O)NCC(=O)N[C@@H](CO)C(=O)N[C@@H]([C@@H](C)CC)C(=O)N[C@@H](Cc1ccccc1)C(=O)NCC(=O)N[C@@H](CCCCN)C(=O)N2 [compound 52] (H-N[Nle]D[Nle]RCSASVECKQSCLKAIGSIFGKC[Nle]NKKCKCYPR-NH2; disulfide 6-27, 12-32, 16-34)
Selectivity ratio Kv1.2/Kv1.3 (human Kv1.2): >8200 | IC50 [1]: 0.07 nM | Selectivity ratio Kv1.1/Kv1.3 (human Kv1.1): >8200 | IC50 (Rat whole blood): 0.63 nM | Selectivity ratio Kv1.6/Kv1.3 (human Kv1.6): >8200

CCCC[C@@H]1NC(=O)[C@@H]2CSSC[C@H](NC(=O)[C@H](CCCNC(=N)N)NC(=O)[C@H](CCSC)NC(=O)[C@H](CC(=O)O)NC(=O)[C@H](CCSC)NC(=O)[C@@H](N)CC(N)=O)C(=O)N[C@@H](CO)C(=O)N[C@@H](C)C(=O)N[C@@H](CO)C(=O)N[C@@H](C(C)C)C(=O)N[C@@H](CCC(=O)O)C(=O)N[C@H]3CSSC[C@H](NC(=O)[C@H](CCCCN)NC(=O)[C@H](CCCCN)NC(=O)[C@H](CC(N)=O)NC1=O)C(=O)N[C@@H](CCCCN)C(=O)N[C@H](C(=O)N[C@@H](Cc1ccc(O)cc1)C(=O)N1CCC[C@H]1C(=O)N[C@@H](CCCNC(=N)N)C(N)=O)CSSC[C@H](NC(=O)[C@H](CCCCN)NC(=O)[C@H](CCC(N)=O)NC(=O)[C@H](CCCCN)NC3=O)C(=O)N[C@@H](CC(C)C)C(=O)N[C@@H](CCCCN)C(=O)N[C@@H](C)C(=O)N[C@@H]([C@@H](C)CC)C(=O)NCC(=O)N[C@@H](CO)C(=O)N[C@@H]([C@@H](C)CC)C(=O)N[C@@H](Cc1ccccc1)C(=O)NCC(=O)N[C@@H](CCCCN)C(=O)N2 [compound 21] (H-NMDMRCSASVECKQKCLKAIGSIFGKC[Nle]NKKCKCYPR-NH2; disulfide 6-27, 12-32, 16-34)
Selectivity ratio Kv1.2/Kv1.3 (human Kv1.2): 561 | IC50 [2]: 0.05 nM | Selectivity ratio Kv1.1/Kv1.3 (human Kv1.1): >12600 | Selectivity ratio Kv1.6/Kv1.3 (human Kv1.6): 10360

H-NMDMRCSASVECKQKCLKAIGSIFGKCMNKKCKCYPRRRTA-NH2 (disulfide 6-27, 12-32, 16-34) [compound 28]
Selectivity ratio Kv1.2/Kv1.3 (human Kv1.2): 191 | IC50 [1]: 0.06 nM | Selectivity ratio Kv1.1/Kv1.3 (human Kv1.1): 4280 | IC50 (Rat whole blood): 0.57 nM | Selectivity ratio Kv1.6/Kv1.3 (human Kv1.6): 1472

CC[C@H](C)[C@@H]1NC(=O)[C@H](C)NC(=O)[C@H](CCCCN)NC(=O)[C@H](CC(C)C)NC(=O)[C@@H]2CSSC[C@@H](C(=O)N[C@@H](Cc3ccc(O)cc3)C(=O)N3CCC[C@H]3C(=O)N[C@@H](CCCNC(=N)N)C(N)=O)NC(=O)[C@H](CCCCN)NC(=O)[C@@H]3CSSC[C@H](NC(=O)[C@H](CCC(=O)O)NC(=O)[C@H](C(C)C)NC(=O)[C@H](CO)NC(=O)[C@H](C)NC(=O)[C@H](CO)NC(=O)[C@@H](NC(=O)[C@H](CCCNC(=N)N)NC(=O)[C@H](CCSC)NC(=O)[C@H](CC(=O)O)NC(=O)[C@H](CCSC)NC(=O)[C@@H](N)CC(N)=O)CSSC[C@H](NC(=O)[C@H](CCCCN)NC(=O)CNC(=O)[C@H](Cc4ccccc4)NC(=O)[C@H]([C@@H](C)CC)NC(=O)[C@H](CO)NC(=O)CNC1=O)C(=O)N[C@@H](CCSC)C(=O)N[C@@H](CC(N)=O)C(=O)N[C@@H](CCCCN)C(=O)N[C@@H](CCCCN)C(=O)N3)C(=O)N[C@@H](CCCCN)C(=O)N[C@@H](C(C)C)C(=O)N[C@@H](CCCCN)C(=O)N2 [compound 22] (H-NMDMRCSASVECKVKCLKAIGSIFGKCMNKKCKCYPR-NH2; disulfide 6-27, 12-32, 16-34)
Selectivity ratio Kv1.2/Kv1.3 (human Kv1.2): 159 | IC50 [2]: 0.4 nM | Selectivity ratio Kv1.1/Kv1.3 (human Kv1.1): >7200 | IC50 (Rat whole blood): 0.88 nM | Selectivity ratio Kv1.6/Kv1.3 (human Kv1.6): 2182

CC[C@H](C)[C@@H]1NC(=O)[C@H](C)NC(=O)[C@H](CC(=O)O)NC(=O)[C@H](CC(C)C)NC(=O)[C@@H]2CSSC[C@@H](C(=O)N[C@@H](Cc3ccc(O)cc3)C(=O)N3CCC[C@H]3C(=O)N[C@@H](CCCNC(=N)N)C(N)=O)NC(=O)[C@H](CCCCN)NC(=O)[C@@H]3CSSC[C@H](NC(=O)[C@H](CCC(=O)O)NC(=O)[C@H](C(C)C)NC(=O)[C@H](CO)NC(=O)[C@H](C)NC(=O)[C@H](CO)NC(=O)[C@@H](NC(=O)[C@H](CCCNC(=N)N)NC(=O)[C@H](CCSC)NC(=O)[C@H](CC(=O)O)NC(=O)[C@H](CCSC)NC(=O)[C@@H](N)CC(N)=O)CSSC[C@H](NC(=O)[C@H](CCCCN)NC(=O)CNC(=O)[C@H](Cc4ccccc4)NC(=O)[C@H]([C@@H](C)CC)NC(=O)[C@H](CO)NC(=O)CNC1=O)C(=O)N[C@@H](CCSC)C(=O)N[C@@H](CC(N)=O)C(=O)N[C@@H](CCCCN)C(=O)N[C@@H](CCCCN)C(=O)N3)C(=O)N[C@@H](CCCCN)C(=O)N[C@@H](CCC(N)=O)C(=O)N[C@@H](CCCCN)C(=O)N2 [compound 25] (H-NMDMRCSASVECKQKCLDAIGSIFGKCMNKKCKCYPR-NH2; disulfide 6-27, 12-32, 16-34)
Selectivity ratio Kv1.2/Kv1.3 (human Kv1.2): 471 | IC50 [2]: 0.1 nM | Selectivity ratio Kv1.1/Kv1.3 (human Kv1.1): >14300 | IC50 (Rat whole blood): 1.2 nM | Selectivity ratio Kv1.6/Kv1.3 (human Kv1.6): 12045

CC[C@H](C)[C@@H]1NC(=O)[C@H](C)NC(=O)[C@H](CCCCN)NC(=O)[C@H](CC(C)C)NC(=O)[C@@H]2CSSC[C@@H](C(=O)N[C@@H](Cc3ccc(O)cc3)C(=O)N3CCC[C@H]3C(=O)N[C@@H](CCCNC(=N)N)C(N)=O)NC(=O)[C@H](CCCCN)NC(=O)[C@@H]3CSSC[C@H](NC(=O)[C@H](CCC(=O)O)NC(=O)[C@H](C(C)C)NC(=O)[C@H](CO)NC(=O)[C@H](C)NC(=O)[C@H](CO)NC(=O)[C@@H](NC(=O)[C@H](CCCNC(=N)N)NC(=O)[C@H](CCSC)NC(=O)[C@H](CC(=O)O)NC(=O)[C@H](CCSC)NC(=O)[C@@H](N)CC(N)=O)CSSC[C@H](NC(=O)[C@H](CCCCN)NC(=O)CNC(=O)[C@H](Cc4ccccc4)NC(=O)[C@H](CCCNC(=N)N)NC(=O)[C@H](CO)NC(=O)CNC1=O)C(=O)N[C@@H](CCSC)C(=O)N[C@@H](CC(N)=O)C(=O)N[C@@H](CCCCN)C(=O)N[C@@H](CCCCN)C(=O)N3)C(=O)N[C@@H](CCCCN)C(=O)N[C@@H](CCC(N)=O)C(=O)N[C@@H](CCCCN)C(=O)N2 [compound 39] (H-NMDMRCSASVECKQKCLKAIGSRFGKCMNKKCKCYPR-NH2; disulfide 6-27, 12-32, 16-34)
Selectivity ratio Kv1.2/Kv1.3 (human Kv1.2): 88 | IC50 [2]: 0.1 nM | Selectivity ratio Kv1.1/Kv1.3 (human Kv1.1): >15000 | IC50 (Rat whole blood): 2.5 nM | Selectivity ratio Kv1.6/Kv1.3 (human Kv1.6): 963
